Results reported in the NIST ThermoML archive (doi:10.1016/j.jct.2013.05.031).

Settings: for surface tension liquid-gas: Capillary rise; for viscosity / mass density: 101.33 kPa, Liquid; for viscosity: Capillary tube (Ostwald / Ubbelohde) method; for mass density: Pycnometric method

CCCCCCCCCCCC[N+](CC)(CC)CC.O=S(=O)([N-]S(=O)(=O)C(F)(F)F)C(F)(F)F
Settings	mass density [kg/m3]	surface tension liquid-gas [mN/m]	viscosity [mPa·s]
298 K	1191.1	31.8	311.8
303 K	1187.1	31.3	227.6
308 K	1183.1	30.9	167.7
313 K	1179.4	30.3	137.8
318 K	1175.7	29.9	98.82
323 K	1171.6	29.5	78.71
328 K	1167.9	29.1	62.52
333 K	1164.2	28.5	49.82
338 K	1160.7	28.2	41.48
343 K	1157.2	27.7	34.69
348 K	1153.3	27.2	29.44
353 K	1149.5	26.8	25.13
358 K	1145.5	26.4	21.3
363 K	1141.4	26	18.31
368 K	1137.6	25.5	16.51
373 K	1133.7	25.2	14.2

CCCCCC[N+](CC)(CC)CC.O=S(=O)([N-]S(=O)(=O)C(F)(F)F)C(F)(F)F [triethylhexylammonium bis((trifluoromethyl)sulfonyl)imide]
Settings	mass density [kg/m3]	surface tension liquid-gas [mN/m]	viscosity [mPa·s]
298 K	1291.4	34.1	186.6
303 K	1287.4	33.7	137.9
308 K	1283.4	33.3	105.1
313 K	1279.5	32.9	81.64
318 K	1275.2	32.5	65.32
323 K	1271.3	32.1	52.03
328 K	1267.1	31.7	42.34
333 K	1262.5	31.3	35.41
338 K	1258.5	30.9	28.94
343 K	1254.5	30.5	24.77
348 K	1251.3	30.1	20.96
353 K	1247.3	29.7	18.03
358 K	1243.3	29.3	15.83
363 K	1238.4	28.9	13.9
368 K	1234.9	28.5	12.25
373 K	1231.1	28.2	10.86

CCCCCCCC[N+](CC)(CC)CC.O=S(=O)([N-]S(=O)(=O)C(F)(F)F)C(F)(F)F [triethyloctylammonium bis[(trifluoromethyl)sulfonyl]imide]
Settings	mass density [kg/m3]	surface tension liquid-gas [mN/m]	viscosity [mPa·s]
298 K	1251.2	33.1	221.4
303 K	1247.2	32.8	163.9
308 K	1242.9	32.3	124.7
313 K	1239.4	31.8	96.76
318 K	1235.2	31.4	76.47
323 K	1231.3	31	60.52
328 K	1227.5	30.6	48.63
333 K	1223.2	30.1	39.85
338 K	1219	29.7	33.2
343 K	1216	29.3	28.23
348 K	1212.9	28.9	23.8
353 K	1207.8	28.6	20.36
358 K	1203.5	28.1	17.83
363 K	1200.2	27.7	15.55
368 K	1196	27.3	13.5
373 K	1192.3	26.9	12.05

CCCCC[N+](CC)(CC)CC.O=S(=O)([N-]S(=O)(=O)C(F)(F)F)C(F)(F)F [triethylpentylammonium bis(trifluoromethylsulfonyl)imide]
Settings	mass density [kg/m3]	surface tension liquid-gas [mN/m]	viscosity [mPa·s]
298 K	1321.5	35.7	161.6
303 K	1317.4	35.4	121.4
308 K	1313.2	35	92.11
313 K	1308.9	34.7	71.86
318 K	1304.9	34.3	57.52
323 K	1301	34	46.74
328 K	1296.6	33.6	37.78
333 K	1293.1	33.3	31.43
338 K	1289.1	32.9	26.57
343 K	1284.7	32.6	22.47
348 K	1280.9	32.2	19.27
353 K	1277.3	31.8	16.71
358 K	1272.9	31.5	14.79
363 K	1268.6	31.1	12.87
368 K	1265.1	30.7	11.5
373 K	1260.7	30.4	10.17
